The values that follow come from PubChem BioAssay AID256 (DTP/NCI, 2004).

This assay relates to CD2F1 mice, L1210 leukemia ip, survival T/C. As to the kind of experiment: NCI In Vivo Anticancer Drug Screen. Data for tumor model L1210 Leukemia (intraperitoneal) in CD2F1 (CDF1) mice. As to conditions: endpoint: mean survival time, higher = longer survival. The method in brief: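 Mice carrying a transplanted tumor received test compound or vehicle alone. The value is the measurement in the treated group divided by that in the vehicle-treated control group.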

The mark [1] stands for this setting: dose: 100.0 mg/kg/injection, schedule: Q04DX002 (ip), vehicle: saline with Tween-80.
[2] abbreviates: dose: 100.0 mg/kg/injection, schedule: Q04DX003 (ip), vehicle: saline with Tween-80.
Where [3] appears, read: dose: 200.0 mg/kg/injection, schedule: Q04DX003 (ip), vehicle: saline with Tween-80.
Where [4] appears, read: dose: 400.0 mg/kg/injection, schedule: Q04DX003 (ip), vehicle: saline with Tween-80.
Setting [5] is: dose: 100.0 mg/kg/injection, schedule: Q01DX009 (ip), vehicle: saline with Tween-80.
The mark [6] stands for this setting: dose: 200.0 mg/kg/injection, schedule: Q01DX009 (ip), vehicle: saline with Tween-80.
Setting [7] is: dose: 100.0 mg/kg/injection, schedule: Q01DX001 (ip), vehicle: saline with Tween-80.
Where [8] appears, read: dose: 200.0 mg/kg/injection, schedule: Q01DX001 (ip), vehicle: saline with Tween-80.
Where [9] appears, read: dose: 5.0 mg/kg/injection, schedule: Q04DX003 (ip), vehicle: saline with Tween-80.
Setting [10] is: dose: 10.0 mg/kg/injection, schedule: Q04DX003 (ip), vehicle: saline with Tween-80.
Setting [11] is: dose: 400.0 mg/kg/injection, schedule: Q01DX009 (ip), vehicle: saline with Tween-80.

Molecules are shown by their SMILES. Where “and” joins values, the source holds several entries; their conditions need not be identical. Identical values can stand only once. Toxic doses and inconclusive results are not listed.

In the case of `Cn1c(=O)c2c(nc(Br)n2CC(=O)CF)n(C)c1=O`, the T/C is, setting by setting: (dose: 12.5 mg/kg/injection, schedule: Q01DX005 (ip), vehicle: distilled water + Tween-80) 97 % of control and 100 % of control and 104 % of control; (dose: 25.0 mg/kg/injection, schedule: Q01DX005 (ip), vehicle: distilled water + Tween-80) 97 % of control (2×) and 105 % of control; (dose: 50.0 mg/kg/injection, schedule: Q01DX005 (ip), vehicle: distilled water + Tween-80) 94 % of control and 95 % of control; (dose: 100.0 mg/kg/injection, schedule: Q01DX005 (ip), vehicle: distilled water + Tween-80) 97 % of control (2×) and 112 % of control; (dose: 200.0 mg/kg/injection, schedule: Q01DX005 (ip), vehicle: distilled water + Tween-80) 93 % of control and 95 % of control.

Turning to `N.N.N.N.O=C([O-])C([O-])C(O)C(=O)[O-].O=[N+]([O-])[O-].[Co+3]` (stereo not drawn), the T/C runs as follows: (dose: 25.0 mg/kg/injection, schedule: Q04DX002 (ip), vehicle: saline with Tween-80) 104 % of control; (dose: 50.0 mg/kg/injection, schedule: Q04DX002 (ip), vehicle: saline with Tween-80) 110 % of control; under setting [1], 110 % of control.

Regarding `CCOC(=O)Nc1cc(N)c2nc(CN(C)c3ccccc3)cnc2n1`, the T/C by setting is: (dose: 100.0 mg/kg/injection, schedule: Q01DX001 (ip), vehicle: other) 91 % of control; (dose: 200.0 mg/kg/injection, schedule: Q01DX001 (ip), vehicle: other) 94 % of control; (dose: 400.0 mg/kg/injection, schedule: Q01DX001 (ip), vehicle: other) 91 % of control.

On to `Cc1ccccc1CC#N`, for which the T/C was 96 % of control (dose: 12.5 mg/kg/injection, schedule: Q04DX002 (ip), vehicle: saline) and 99 % of control (dose: 25.0 mg/kg/injection, schedule: Q04DX002 (ip), vehicle: saline).

For `O=C(CC(O)(C(F)(F)F)C(F)(F)F)c1ccc(F)cc1`, the T/C was 98 % of control (dose: 100.0 mg/kg/injection, schedule: Q01DX009 (ip), vehicle: other); 98 % of control (dose: 200.0 mg/kg/injection, schedule: Q01DX009 (ip), vehicle: other); 98 % of control (dose: 400.0 mg/kg/injection, schedule: Q01DX009 (ip), vehicle: other).

With `C/C(CCC(CC(=O)O)C(C)C)=N\NC(N)=O` (stereo not drawn), the T/C runs as follows: under setting [2], 97 % of control; under setting [3], 97 % of control; under setting [4], 103 % of control.

Take `CC(=O)Nc1cc(CN2CCCCC2)c(O)c2ncccc12`: the T/C (dose: 75.0 mg/kg/injection, schedule: Q01DX001 (ip), vehicle: other) is 102 % of control and the T/C (dose: 150.0 mg/kg/injection, schedule: Q01DX001 (ip), vehicle: other) was 102 % of control.

Turning to `O=[As](O)(O)Cc1ccccc1`, the T/C was 100 % of control (dose: 6.25 mg/kg/injection, schedule: Q01DX009 (ip), vehicle: Klucel (hydroxypropylcellulose) (HPC)); 89 % of control (dose: 12.5 mg/kg/injection, schedule: Q01DX009 (ip), vehicle: Klucel (hydroxypropylcellulose) (HPC)); 93 % of control (dose: 25.0 mg/kg/injection, schedule: Q01DX009 (ip), vehicle: Klucel (hydroxypropylcellulose) (HPC)).

`C=CCOc1c(C)cc(C)cc1/C=C/C`: the T/C under setting [5] was 94 % of control and the T/C under setting [6] was 89 % of control.

With `CCOC(=O)N1CCc2nc3cc(OC)ccc3cc21`, the T/C reads like this: under setting [7], 103 % of control; under setting [8], 98 % of control; (dose: 400.0 mg/kg/injection, schedule: Q01DX001 (ip), vehicle: saline with Tween-80) 98 % of control.

With `CS(=O)(=O)OCCNC(=O)N(CCCl)N=O`, the T/C (dose: 0.39 mg/kg/injection, schedule: Q01DX009 (ip), vehicle: water) was 95 % of control; the T/C (dose: 0.78 mg/kg/injection, schedule: Q01DX009 (ip), vehicle: water) was 108 % of control; the T/C (dose: 3.13 mg/kg/injection, schedule: Q01DX009 (ip), vehicle: water) is 193 % of control; the T/C (dose: 5.0 mg/kg/injection, schedule: Q01DX001 (ip), vehicle: distilled water + Tween-80) is 120 % of control; the T/C (dose: 6.25 mg/kg/injection, schedule: Q01DX009 (ip), vehicle: water) is 356 % of control; the T/C (dose: 20.0 mg/kg/injection, schedule: Q01DX001 (ip), vehicle: distilled water + Tween-80) was 216 % of control and 342 % of control. Under “dose: 40.0 mg/kg/injection, schedule: Q01DX001 (ip), vehicle: distilled water + Tween-80”, the T/C was 311 % of control and 500 % of control.

With `CN(C)C(=O)Nc1cccc(OP(=O)(N(C)C)N(C)C)c1`, the T/C is, setting by setting: under setting [2], 103 % of control; under setting [3], 97 % of control; under setting [4], 99 % of control.

Turning to `NC1=NN(c2ccccc2)CC1`, the T/C (dose: 5.0 mg/kg/injection, schedule: Q01DX009 (ip), vehicle: saline with Tween-80) was 96 % of control; the T/C under setting [9] was 94 % of control; the T/C (dose: 10.0 mg/kg/injection, schedule: Q01DX009 (ip), vehicle: saline with Tween-80) is 96 % of control; the T/C under setting [10] is 91 % of control; the T/C (dose: 20.0 mg/kg/injection, schedule: Q01DX009 (ip), vehicle: saline with Tween-80) is 106 % of control; the T/C (dose: 20.0 mg/kg/injection, schedule: Q04DX003 (ip), vehicle: saline with Tween-80) is 86 % of control.

Turning to `CC1Sc2ccccc2-c2[nH]c3ccccc3c21` (stereo not drawn), the T/C was 97 % of control under setting [2], 87 % of control under setting [3] and 90 % of control under setting [4].

Regarding `CCc1c(CNc2ccc(C(=O)NC(CC(=O)O)C(=O)O)cc2)ccc2nc(N)nc(N)c12` (stereo not drawn), the T/C was 105 % of control (dose: 0.25 mg/kg/injection, schedule: Q01DX001 (ip), vehicle: saline); 114 % of control (dose: 0.5 mg/kg/injection, schedule: Q01DX001 (ip), vehicle: saline); 119 % of control (dose: 1.0 mg/kg/injection, schedule: Q01DX001 (ip), vehicle: saline); 163 % of control (dose: 4.0 mg/kg/injection, schedule: Q01DX001 (ip), vehicle: saline).

For `COc1ccc(-c2ccc(-c3ccc(S(=O)(=O)c4ccc(-c5ccc(-c6ccc(OC)cc6)cc5)c(N)c4)cc3N)cc2)cc1`, the T/C was 110 % of control under setting [5], 89 % of control under setting [6] and 89 % of control under setting [11].

`O=C1CSCc2c1ccc1ccccc21`: the T/C under setting [5] is 98 % of control, the T/C under setting [6] is 95 % of control and the T/C under setting [11] is 96 % of control.

As to `CCCCC(CC)C(=O)[O][Pb]([CH3])([CH3])[CH3]` (stereo not drawn), the T/C is, setting by setting: under setting [9], 97 % of control; under setting [10], 98 % of control.

Take `CCOC(=O)C(C)(C)C(OP(=O)(OCC)OCC)=C(C)C`: the T/C (dose: 75.0 mg/kg/injection, schedule: Q01DX001 (ip), vehicle: saline) was 103 % of control; the T/C (dose: 150.0 mg/kg/injection, schedule: Q01DX001 (ip), vehicle: saline) was 97 % of control; the T/C (dose: 300.0 mg/kg/injection, schedule: Q01DX001 (ip), vehicle: saline) is 100 % of control.

`Cc1cccc(CC(C)O)n1` (stereo not drawn): the T/C (dose: 100.0 mg/kg/injection, schedule: Q01DX001 (ip), vehicle: saline) was 96 % of control; the T/C under setting [1] is 97 % of control; the T/C (dose: 100.0 mg/kg/injection, schedule: Q04DX002 (ip), vehicle: saline) was 93 % of control; the T/C under setting [2] is 96 % of control and 97 % of control; the T/C (dose: 200.0 mg/kg/injection, schedule: Q01DX001 (ip), vehicle: saline) was 94 % of control; the T/C (dose: 200.0 mg/kg/injection, schedule: Q04DX002 (ip), vehicle: saline with Tween-80) is 106 % of control. In addition, the T/C (dose: 200.0 mg/kg/injection, schedule: Q04DX002 (ip), vehicle: saline) was 96 % of control; the T/C under setting [3] was 86 % of control and 112 % of control; the T/C (dose: 400.0 mg/kg/injection, schedule: Q01DX001 (ip), vehicle: saline) is 98 % of control; the T/C (dose: 400.0 mg/kg/injection, schedule: Q04DX002 (ip), vehicle: saline with Tween-80) is 93 % of control; the T/C (dose: 400.0 mg/kg/injection, schedule: Q04DX002 (ip), vehicle: saline) is 93 % of control; the T/C under setting [4] was 97 % of control and 106 % of control.

On to `CC1=CC(=C2C=C(C)C(=O)C(C)=C2)C=C(C)C1=O`, for which the T/C was 87 % of control (dose: 50.0 mg/kg/injection, schedule: Q01DX001 (ip), vehicle: saline with Tween-80); 87 % of control under setting [7]; 91 % of control under setting [8].

Turning to `CCC(=O)OCCn1c2ccccc2c2c(C)c3cnccc3c(C)c21`, the T/C under setting [5] was 110 % of control; the T/C under setting [2] was 102 % of control; the T/C under setting [3] is 107 % of control; the T/C under setting [11] was 154 % of control; the T/C under setting [4] is 123 % of control.
